Legend:
Type in all cases: in vivo, Sprague Dawley rats
AMPK/SIRT1/PGC-1α = experiment: Western blot of AMPK/SIRT1/PGC-1α protein expression in muscle tissue; settings: HFD rats, skeletal muscle
Method: (§1) Male Sprague Dawley rats aged 6-8 weeks were housed under a 12/12 h light/dark cycle at 22° C. and given free access to water and high-fat diet (HFD, 60% kcal from fat) for 12 weeks. After the 12 weeks, all rats were randomly divided into 3 groups of 8 animals. They were supplemented with or without DHB according to the following: • (1) non-supplement group (Con HFD only, Group 1); • (2) DHB supplement group (DHB+HFD, 100 mg/kg, Group 2); • (3) DHB supplement group (DHB+HFD, 200 mg/kg, Group 3).
(§2) Before the rats were sacrificed, half the rats in each group were injected with 0.75 IU/kg body weight insulin (i.p.) to activate glucose uptake and assess the insulin resistance in the skeletal muscle. Fifteen minutes later, all the rats were anesthetized with chloral hydrate; the soleus muscles were fixed in paraformaldehyde, and the gastrocnemius muscles were frozen immediately in liquid nitrogen and stored at −80° C. for protein-related experiments.
Protein sample preparation: For total protein extraction, 100 mg of the frozen gastrocnemius muscle was homogenized in radioimmunoprecipitation assay (RIPA) buffer (containing 0.2 μg/mL PMSF and 10 μg/mL phosphatase inhibitor) for 30 min and then centrifuged at 3,500 rpm×15 min and 12,000 rpm×15 min. The supernatants were extracted for the western blot analysis.
Western blot analysis: The concentration of protein in the gastrocnemius muscle was quantitated by piercing bicinchoninic acid (BCA), and 120 μg of total protein was electrophoresed on a 12% SDS polyacrylamide gel and electro-transferred onto Polyvinylidene difluoride (PVDF) membranes. Membranes were blocked with 5% (w/v) BSA for 2 h at room temperature and then incubated with primary antibodies overnight at 4° C. with slight shaking. After being washed with TBST three times, the membranes were incubated with a secondary antibody (1:2000) at room temperature for 2 h. The protein bands were visualized by enhanced chemiluminescence with a GENE Imaging system. The images were quantified using Image Analysis Software.
Western blot was used to check the protein expression of AMPK/SIRT1/PGC-1α in the muscle tissue.

[1] = Body fat percentage by nuclear magnetic resonance body composition analyzer in high-fat diet rats; settings: HFD rats, FIG. 1
Method: Male Sprague Dawley rats aged 6-8 weeks were housed under a 12/12 h light/dark cycle at 22° C. and given free access to water and high-fat diet (HFD, 60% kcal from fat) for 12 weeks. After the 12 weeks, all rats were randomly divided into 3 groups of 8 animals. They were supplemented with or without DHB according to the following: • (1) non-supplement group (Con HFD only, Group 1); • (2) DHB supplement group (DHB+HFD, 100 mg/kg, Group 2); • (3) DHB supplement group (DHB+HFD, 200 mg/kg, Group 3). Before supplementing DHB, the muscle content of all rats was measured by nuclear magnetic resonance body composition analyzer. And then all rats were administered DHB before each major meal once daily by gavage (i.g.) in normal saline solution for 4 months. The muscle content of all rats was tested by nuclear magnetic resonance body composition analyzer every month. […] FIG. 1 is a graph of percentage of body fat of three groups of rats (Con; DHB 100 mg/kg; DHB 200 mg/kg) every month. […] Thus, DHB supplementation could achieve the beneficial effects on weight loss and increasing muscle mass.

ATP = ATP determination in serum and skeletal muscle (ELISA); settings: HFD rats
Method: Male Sprague Dawley rats aged 6-8 weeks were housed under a 12/12 h light/dark cycle at 22° C. and given free access to water and high-fat diet (HFD, 60% kcal from fat) for 12 weeks. After the 12 weeks, all rats were randomly divided into 3 groups of 8 animals. They were supplemented with or without DHB according to the following: • (1) non-supplement group (Con HFD only, Group 1); • (2) DHB supplement group (DHB+HFD, 100 mg/kg, Group 2); • (3) DHB supplement group (DHB+HFD, 200 mg/kg, Group 3). Based on the results of decreased fiber number and insulin resistance, the mitochondrial function in skeletal muscle might be also impaired. ATP and ROS levels in serum and skeletal muscle, which represented mitochondrial function, were further determined. ATP determination: The ATP concentration in the gastrocnemius muscle was measured using ELISA according to the manufacturer's instructions. Before the ELISA was tested, the gastrocnemius muscle lysates were first measured with a BCA protein assay kit, and the total protein concentration of each group was adjusted to the same by RIPA. The concentration of ATP was then calculated based on the absorption density determined at 450 nm.

ROS = experiment: Reactive oxygen species (ROS) test in serum and skeletal muscle; settings: HFD rats, DHB 100 and 200 mg/kg
Method: Male Sprague Dawley rats aged 6-8 weeks were housed under a 12/12 h light/dark cycle at 22° C. and given free access to water and high-fat diet (HFD, 60% kcal from fat) for 12 weeks. After the 12 weeks, all rats were randomly divided into 3 groups of 8 animals. They were supplemented with or without DHB according to the following: • (1) non-supplement group (Con HFD only, Group 1); • (2) DHB supplement group (DHB+HFD, 100 mg/kg, Group 2); • (3) DHB supplement group (DHB+HFD, 200 mg/kg, Group 3). Based on the results of decreased fiber number and insulin resistance, the mitochondrial function in skeletal muscle might be also impaired. ATP and ROS levels in serum and skeletal muscle, which represented mitochondrial function, were further determined. Reactive oxygen species (ROS) test: Ten microliters of skeletal muscle or lysate or 10 μl of serum was added to 127.5 μl of reaction buffer in 96-well plates (containing 30 mM HEPES (pH 7.2), 200 mM KCl, 1 mM MgCl2, and 7.5 μl of 2,2′-azobis(2-methylpropionamidine) dihydrochloride). The same volume of ultrapure water was pipetted into the plate as a blank. The microplate was put into a fluorescence microplate reader at 35° C. 10 μl of the fluorescent probe H2DCF-DA was added to each well for a final concentration of 40 μM immediately before reading, and the level of ROS was detected at 488 and 525 nm.

soleus muscles = experiment: HE staining of soleus, morphological changes of the skeletal muscle; settings: HFD rats, DHB supplementation groups, especially group 3 (200 mg/kg)
Method: as §1, §2
To evaluate the morphological changes of the skeletal muscle, HE staining of soleus was conducted. Hematoxylin-eosin (HE) staining: Soleus muscles were fixed in paraformaldehyde overnight, dehydrated in an ascending graded ethanol series, equilibrated with xylene, embedded in paraffin and sectioned into 5- to 10-μm slices. Then, the samples were dewaxed with xylene and a descending graded ethanol series. […]

[2] = system: glucose transporter type 4 (GLUT4); experiment: Insulin stimulating membrane translocation of GLUT4 in skeletal muscle by western blot; settings: HFD rats, DHB groups 100 and 200 mg/kg, especially higher dose; insulin 0.75 IU/kg i.p.; gastrocnemius muscle, FIG. 2
Method: as §1
Before the rats were sacrificed, half the rats in each group were injected with 0.75 IU/kg body weight insulin (i.p.) to activate glucose uptake and assess the insulin resistance in the skeletal muscle. […]
To assess that DHB could improve insulin resistance in the skeletal muscle, the insulin stimulating membrane translocation of glucose transporter type 4 (GLUT4) by the western blot analysis was measured and compared among the groups. […]
Western blot analysis: The concentration of protein in the gastrocnemius muscle was quantitated by piercing bicinchoninic acid (BCA), and 120 μg of total protein was electrophoresed on a 12% SDS polyacrylamide gel and electro-transferred onto Polyvinylidene difluoride (PVDF) membranes. […] The images were quantified using Image Analysis Software.

COc1ccc2c(c1OC)CN1CCc3cc4c(cc3C1=C2)OCO4 [DHB, dihydroberberine]
total AMPK protein expression among the three groups (AMPK/SIRT1/PGC-1α; DHB 100 and 200 mg/kg vs control, GAPDH as internal reference, FIG. 4e): no significant difference | protein expression of p-AMPK (AMPK/SIRT1/PGC-1α; DHB groups, especially group 3 (200 mg/kg), FIG. 4e): dramatically upregulated | protein expression of SIRT1 relative to the control group (AMPK/SIRT1/PGC-1α; group 3 (DHB 200 mg/kg), FIG. 4f): approximately 1.9 fold | protein expression of PGC-1α relative to the control group (AMPK/SIRT1/PGC-1α; group 3 (DHB 200 mg/kg), FIG. 4g): ~2 fold | reduction in body fat compared to control group ([1]; DHB 100 and 200 mg/kg i.g. once daily for 4 months): greater reduction in body fat | decrease of percentage of body fat versus beginning of supplementation ([1]; higher dose group (200 mg/kg) i.g. once daily, 4 months): about 52% | production of ATP in serum relative to the control group (ATP; DHB 200 mg/kg, serum, FIG. 4a): 1.6 fold | production of ATP in skeletal muscle relative to the control group (ATP; DHB 200 mg/kg, skeletal muscle, FIG. 4c): 2.7 fold | production of ATP in serum (ATP; DHB treatment 100 and 200 mg/kg, serum, FIG. 4a): increased significantly | production of ATP in skeletal muscle (ATP; DHB treatment 100 and 200 mg/kg, skeletal muscle, FIG. 4c): increased significantly | ROS level in serum (ROS; serum, FIG. 4b): inhibit increased ROS effectively | ROS level in skeletal muscle (ROS; skeletal muscle, FIG. 4d): inhibit increased ROS effectively | number of muscle fibers compared with the control group (soleus muscles; FIG. 3a): increased dramatically | relative cross-sectional area of the muscle fibers versus control group (soleus muscles; FIG. 3b): dropped below that of the control group | membrane translocation of GLUT4 after insulin stimulation relative to control group [2]: remarkably increased

Reference: US11903932B2, “Use of dihydroberberine or its derivatives to enhance muscle function” (NANJING NUTRABUILDING BIO-TECH CO., LTD., priority 2021, dated 2024)
